# Assay results reported in US20070265231A1, “Hydrazide Compounds for Combating Animal Pests” (priority 2005, published 2007).
# Tested on: Bean Aphid (Aphis fabae)
# Assay: Bean aphid mortality test, nasturtium plants dipped in test solution
# Format: in vivo
# Conditions: 300 ppm, after 3 days
# Source text: I.4 Bean Aphid (Aphis fabae)
# Nasturtium plants grown in Metro mix in the 1st leaf-pair stage (variety ‘Mixed Jewel’) were infested with approximately 2-30 laboratory-reared aphids by placing infested cut plants on top of the test plants. The cut plants were removed after 24 hr. Each plant was dipped into the test solution to provide complete coverage of the foliage, stem, protruding seed surface and surrounding cube surface and allowed to dry in the fume hood. The treated plants were kept at about 25° C. with continuous fluorescent light. Aphid mortality is determined after 3 days.
row,Compound,mortality in comparison with untreated controls [%]
1,CC(=Cc1ccccc1F)CNNC(=O)c1ccc(F)cc1F [A305],75
2,CC(C)C(=Cc1ccco1)CNNC(=O)c1ccccn1 [E3],75
3,CC(=Cc1ccccc1)CNNC(=O)c1ccc(F)cc1F [A141],75
4,CC(=Cc1cccc(F)c1)CNN(C)C(=O)c1ccccc1 [A93],75
5,O=C(NNCC=Cc1ccc(Cl)s1)c1ccccn1 [E1],75

# Tested on: Orchid thrips (dichromothrips corbetti)
# Assay: Orchid thrips mortality test, floral-immersion technique
# Format: in vivo
# Conditions: 96 h, orchid petals dipped, adult thrips, after 4 days, read-out: mortality in comparison with untreated controls
# Procedure: I.3 Orchid thrips (dichromothrips corbetti)
# Dichromothrips corbetti adults used for bioassay were obtained from a colony maintained continuously under laboratory conditions. For testing purposes, the test compound was diluted to a concentration of 500 ppm (wt compound: vol diluent) in a 1:1 mixture of acetone:water, plus 0.01% Kinetic® surfactant.
# Thrips potency of each compound was evaluated by using a floral-immersion technique. Plastic petri dishes were used as test arenas. All petals of individual, intact orchid flowers were dipped into treatment solution for approximately 3 seconds and allowed to dry for 2 hours. Treated flowers were placed into individual petri dishes along with 10-15 adult thrips. The petri dishes were then covered with lids. All test arenas were held under continuous light and a temperature of about 28° C. for duration of the assay. After 4 days, the numbers of live thrips were counted on each flower, and along inner walls of each petri dish. The level of thrips mortality was extrapolated from pre-treatment thrips numbers.
row,Compound,mortality at 300 ppm [%]
1,"CC(=Cc1cccc(F)c1)CNNC(=O)c1ccccc1F [A1, 2-Fluorobenzoic acid N′-[3-(3-fluorophenyl)-2-methyl-allyl]hydrazide]",> 75
